In one data set the test system is p38 MAPKs or JNKs. The conditions noted are these: Kuma, Y. (2005); cited from earlier work.
The test system of data set [1] is U937 cells. Briefly: LPS-induced IL-8 release in U937 cells. The class given is cell-based. Particulars: Homo sapiens, read-out: DU937 (LPS) IL-8 IC50. In outline:
(§1)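 U937 cells differentiated with PMA (100 ng/ml) for 48 to 72 hours, pre-treated with compound for 2 hrs, then stimulated with E. coli O111:B4 LPS for 4 hrs. Supernatant TNFα and IL-8 measured by sandwich ELISA; inhibition at each concentration versus vehicle control.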

The next data set has as its system BEAS2B cells. Briefly: Poly I:C-induced ICAM-1 induction in BEAS2B cells. The conditions noted are these: Homo sapiens, BEAS-2B, read-out: BEAS2B (polyIC) ICAM1 IC50. Type of data set: cell-based. The procedure, abridged: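 Poly I:C (1 ug/ml) transfected into BEAS2B cells after 2 h compound pre-incubation. Surface ICAM-1 measured by cell-based ELISA 18 h post-transfection (HRP, OD450–655), corrected for cell number by OD595.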

A further data set deals with T1, p38 MAPK alpha (MAPK14) (Homo sapiens, UniProt Q16539).
T1 construct: purchased Invitrogen
T1 sequence (Q16539 whole entry): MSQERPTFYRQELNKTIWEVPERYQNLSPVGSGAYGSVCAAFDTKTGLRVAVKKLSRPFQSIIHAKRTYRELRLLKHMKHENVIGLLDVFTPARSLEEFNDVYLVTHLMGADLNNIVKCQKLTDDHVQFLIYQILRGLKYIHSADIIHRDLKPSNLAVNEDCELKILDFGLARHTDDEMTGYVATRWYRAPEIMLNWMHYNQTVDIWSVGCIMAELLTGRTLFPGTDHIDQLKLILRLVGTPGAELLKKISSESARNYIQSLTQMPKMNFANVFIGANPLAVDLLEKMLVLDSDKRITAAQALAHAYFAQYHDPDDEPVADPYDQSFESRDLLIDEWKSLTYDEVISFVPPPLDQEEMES
Put plainly: Enzyme inhibition assay, p38 MAPK alpha (FRET, Z-LYTE, via MAPKAP-K2). Particulars: read-out: Enzyme p38α IC50. Type of data set: biochemical.

Another data set has as its system THP-1 cells. Briefly: LPS-induced TNF alpha release in THP-1 cells. The class given is cell-based. The conditions noted are these: Homo sapiens, THP-1, read-out: THP-1 (LPS) TNFα IC50. As to the method:
LPS-Induced TNF Alpha Release in THP-1 Cells: Potency […] Coli; O111:B4, Sigma) for 4 hr and the supernatant collected for determination of TNFα concentration by sandwich ELISA (Duo-set, R&D systems). The inhibition of TNFα production was calculated at each concentration by comparison with vehicle control.

For data set [2], the system named is U937 cells. Briefly: LPS-induced TNF alpha release in U937 cells. The conditions noted are these: Homo sapiens; read-out: DU937 (LPS) TNFα REC50. Type of data set: cell-based. The procedure, abridged:
as §1

In the next data set the test system is mice. Put plainly: LPS-induced neutrophils accumulation in mice. Type of data set: in vivo.
In data set [3] the test system is Differentiated U937 cells. Put plainly: MTT assay (cell viability). Type of data set: cell-based, human. In outline: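 Differentiated U937 cells pre-incubated with compound 4 h in 5% FCS or 24 h in 10% FCS; MTT read at 550 nm after DMSO solubilisation. Percentage loss of viability relative to 0.5% DMSO vehicle; apparent increases appear as negative percentages.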

Data set [4] deals with Dunkin-Hartley guinea-pigs. Briefly: Ovalbumin challenge/parainfluenza infection model. Type of data set: in vivo. Particulars: nebulised 1.5 mg per day; sensitized animals treated with PIV3 medium; initial studies.
A further data set relates to A/J mice. Put plainly: Cigarette smoke model. The conditions noted are these: 50 μg/mL (35 μl, bid) intra-nasally, cigarette smoke exposed mice. The class given is in vivo. How it is done:
Cigarette Smoke Model A/J mice (males, 5 weeks old) were exposed to cigarette smoke (4% cigarette smoke, diluted with compressed air) for 30 min/day for 11 days using a Tobacco Smoke Inhalation Experiment System for small animals (Model SIS-CS; Sibata Scientific Technology, Tokyo, Japan). Test substances were given intra-nasally (35 μL of solution in 50% DMSO/PBS) and therapeutically twice daily for 3 days after the final cigarette smoke exposure. Twelve hours after the last dosing, animals were anesthetized, the trachea cannulated and bronchoalveolar lavage fluid (BALF) was collected.

[5] abbreviates: Table 3, first MTT column, loss of cell viability at 1 μg/ml.
The mark [6] stands for this setting: Table 3, second MTT column, loss of cell viability at 1 μg/ml.
Setting [7] is: Table 1, MTT, loss of cell viability at 1 μg/ml.
Where [8] appears, read: Table 1, first MTT column, loss of cell viability at 1 μg/ml.

Like-named read-outs stand apart in the source and are kept apart here.

As for `Cc1ccc(-n2nc(C(C)(C)C)cc2NC(=O)Nc2ccc(OCCN3CCOCC3)c3ccccc23)cc1` [BIRB 796], the “phosphorylation of p38 MAPKs or JNKs by the upstream kinase MKK6 or MKK4” value in the data set on p38 MAPKs or JNKs is reported as “impaired the phosphorylation of p38 MAPKs or JNKs”.

Regarding `Cc1ccc(-n2nc(C(C)(C)C)cc2NC(=O)Nc2ccc(Oc3ccnc(NC(=O)N4CCOCC4)c3)c3ccccc23)cc1` [Example 42, N-(4-(4-(3-(3-tert-Butyl-1-p-tolyl-1H-pyrazol-5-yl)ureido)naphthalen-1-yloxy)pyridin-2-yl)morpholine-4-carboxamide], the IC50 with U937 cells [1] (Table 3) was less than 5000 nM; in the data set with BEAS2B cells (Table 3), less than 10 nM; at p38 MAPK alpha (MAPK14) (Table 3) it was less than 5000 nM; with THP-1 cells (Table 3) it was less than 10 nM. Besides, the EC50 in the data set with U937 cells [2] is less than 10 nM. The “Neutrophil numbers in BAL” value in the data set on mice (0.2 mg/ml intra tracheal, 8 hr pre-dose, BALF 8 h after LPS, mean ± SEM, n = 8) is 8.60 ± 1.59 ×10^5/mL. In addition, the “DU937 (cell viability) MTT assay 4 h” value in data set [3] (setting [5]) and in [3] (setting [6]) was “− (<=30%)” throughout.

For the molecule `Cc1ccc(-n2nc(C(C)(C)C)cc2NC(=O)Nc2ccc(Oc3ccnc(NC(=O)NCC(=O)N4CCN(C)CC4)c3)c3ccccc23)cc1` [Example 61, 1-(2-(3-(4-(4-(3-(3-tert-Butyl-1-p-tolyl-1H-pyrazol-5-yl)ureido)naphthalen-1-yloxy)pyridin-2-yl)ureido)acetyl)-4-methylpiperazine], the IC50 in the data set with U937 cells [1] (Table 3), with BEAS2B cells (Table 3), on p38 MAPK alpha (MAPK14) (Table 3) and in the data set with THP-1 cells (Table 3) was less than 10 nM in each case. Besides, in the data set with U937 cells [2], the EC50 is less than 10 nM. Moreover, the “DU937 (cell viability) MTT assay 4 h” value in data set [3] (setting [5]) and in data set [3] (setting [6]) was “− (<=30%)” each time.

Turning to `COCCNC(=O)CNC(=O)Nc1cc(Oc2ccc(NC(=O)Nc3cc(C(C)(C)C)nn3-c3ccc(C)cc3)c3ccccc23)ccn1` [Example 62], the half-inhibitory concentration (IC50) in the data set on U937 cells [1] (Table 3), in the data set on BEAS2B cells (Table 3), at p38 MAPK alpha (MAPK14) (Table 3) and in the data set with THP-1 cells (Table 3) was less than 10 nM in each case. Also, the EC50 in the data set on U937 cells [2] is less than 10 nM. For the same molecule, the “DU937 (cell viability) MTT assay 4 h” value in data set [3] (setting [5]) and in data set [3] (setting [6]) was “− (<=30%)” each time.

For the molecule `COCC(=O)Nc1cc(Oc2ccc(NC(=O)Nc3cc(C(C)(C)C)nn3-c3ccc(C)cc3)c3ccccc23)ncn1` [Example 63, N-(6-(4-(3-(3-tert-Butyl-1-p-tolyl-1H-pyrazol-5-yl)ureido)naphthalen-1-yloxy)pyrimidin-4-yl)-2-methoxyacetamide], the IC50 with U937 cells [1] (Table 1) was less than 10 nM; in the data set on BEAS2B cells (Table 1) it was less than 5000 nM; at p38 MAPK alpha (MAPK14) (Table 1), less than 10 nM; with THP-1 cells (Table 1), less than 10 nM. Moreover, the EC50 in the data set on U937 cells [2] was less than 10 nM. The “DU937 (cell viability) MTT assay 4 h” value in [3] (Table 1, MTT, loss of cell viability, test conducted at 10 μg/ml) was “+^$ (>30%)”; in data set [3] (Table 1, first MTT column, loss of cell viability, test conducted at 10 μg/ml), “−^$ (<=30%)”.

Take `COCC(=O)Nc1nccc(Oc2ccc(NC(=O)Nc3cc(C(C)(C)C)nn3-c3ccc(C)cc3)c3ccccc23)n1` [Example 65, N-(4-(4-(3-(3-tert-Butyl-1-p-tolyl-1H-pyrazol-5-yl)ureido)naphthalen-1-yloxy)pyrimidin-2-yl)-2-methoxyacetamide]: the IC50 was less than 5000 nM in the data set on U937 cells [1] (Table 1), less than 5000 nM with BEAS2B cells (Table 1), less than 5000 nM on p38 MAPK alpha (MAPK14) (Table 1) and less than 10 nM with THP-1 cells (Table 1). For the same molecule, the EC50 with U937 cells [2] was less than 10 nM. Besides, the “DU937 (cell viability) MTT assay 4 h” value in data set [3] (setting [7]) and in [3] (setting [8]) was “− (<=30%)” each time.

Take `Cc1ccc(-n2nc(C(C)(C)C)cc2NC(=O)Nc2ccc(Oc3ccnc(NC(N)=O)n3)c3ccccc23)cc1` [Example 66, 3-(4-(4-(3-(3-tert-Butyl-1-p-tolyl-1H-pyrazol-5-yl)ureido)naphthalen-1-yloxy)pyrimidin-2-yl)urea]: the half-maximal inhibitory concentration (IC50) was less than 10 nM in the data set with U937 cells [1] (Table 1), less than 5000 nM in the data set with BEAS2B cells (Table 1), less than 5000 nM at p38 MAPK alpha (MAPK14) (Table 1) and less than 10 nM in the data set with THP-1 cells (Table 1). For the same molecule, the EC50 in the data set with U937 cells [2] is less than 10 nM. Also, the “DU937 (cell viability) MTT assay 4 h” value in data set [3] (setting [7]) and in data set [3] (setting [8]) was “− (<=30%)” in each case.

In the case of `CNC(=O)Nc1nccc(Oc2ccc(NC(=O)Nc3cc(C(C)(C)C)nn3-c3ccc(C)cc3)c3ccccc23)n1` [Example 67, 1-Methyl-3-(4-(4-(3-(3-tert-butyl-1-p-tolyl-1H-pyrazol-5-yl)ureido)naphthalen-1-yloxy)pyrimidin-2-yl)urea], the 50% inhibitory concentration (IC50) in the data set on U937 cells [1] (Table 1) is less than 10 nM; with BEAS2B cells (Table 1), less than 5000 nM; at p38 MAPK alpha (MAPK14) (Table 1), less than 5000 nM; in the data set with THP-1 cells (Table 1), less than 10 nM. Further, the EC50 in the data set with U937 cells [2] was less than 10 nM. Further, the “DU937 (cell viability) MTT assay 4 h” value in data set [3] (setting [7]) and in [3] (setting [8]) was “− (<=30%)” each time.

For `Cc1ccc(-n2nc(C(C)(C)C)cc2NC(=O)Nc2ccc(Oc3ccnc(NC(=O)N(C)C)n3)c3ccccc23)cc1` [Example 68, 1,1-Dimethyl-3-(4-(4-(3-(3-tert-butyl-1-p-tolyl-1H-pyrazol-5-yl)ureido)naphthalen-1-yloxy)pyrimidin-2-yl)urea], the IC50 in the data set on U937 cells [1] (Table 1) was less than 10 nM; with BEAS2B cells (Table 1), less than 10 nM; at p38 MAPK alpha (MAPK14) (Table 1), less than 10 nM; in the data set with THP-1 cells (Table 1), less than 5000 nM. Further, the EC50 in the data set with U937 cells [2] is less than 10 nM. Further, the “DU937 (cell viability) MTT assay 4 h” value in [3] (setting [7]) and in data set [3] (setting [8]) was “− (<=30%)” in each case.

On to `CCC(=O)O[C@]1(C(=O)SCF)[C@H](C)C[C@H]2[C@@H]3C[C@H](F)C4=CC(=O)C=C[C@]4(C)[C@@]3(F)[C@@H](O)C[C@@]21C` [fluticasone propionate], for which the “ovalbumin-mediated lung function changes” value in data set [4] is reported as “inhibited ovalbumin-mediated lung function changes”. Moreover, in the data set with A/J mice, the “macrophage accumulation into airways” value is on record as “did not inhibit” and the “neutrophil accumulation into airways” value was “did not inhibit”. In addition, in the data set with mice (50 μg/mL (35 μl, bid)), the “inhibition of LPS-induced neutrophil accumulation” value is on record as greater than 80%.

What is called IC50 is the point on the concentration scale where inhibition reaches its midpoint.

Values taken from patent publication US8299074B2, “P38 MAP kinase inhibitors” (RespiVert Ltd., priority 2008, dated 2012).
